In the supplement of paper PMC10307832:

Columns and labels:
Test in all cases: relative viability (nuclei count vs DMSO), 5 days (fraction); higher = more cells survive
NCI-H2087 = tested on: NCI-H2087
Outline: (§1)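 The day after seeding in 1536-well plates, lung cancer cell lines were treated by pin tool with a single drug, or with a fixed anchor-drug dose together with five library-drug doses (not always all listed) in √10 steps. After 5 days, a combined fix-and-stain solution (final 0.05% Triton X-100, 1% formaldehyde, 1 ug/ml Hoechst) was added. Nuclei counted on 4× images gave relative viability as treated counts over vehicle counts, reported as the median of duplicate plates.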

UMC-11 = tested on: UMC-11
Outline: as §1

NCI-H1355 = tested on: NCI-H1355
Outline: as §1

NCI-H1651 = tested on: NCI-H1651
Outline: as §1

EMC-BAC-2 = tested on: EMC-BAC-2
Outline: as §1

NCI-H650 = tested on: NCI-H650
Outline: as §1

EPLC-272H = tested on: EPLC-272H
Outline: as §1

NCI-H2023 = tested on: NCI-H2023
Outline: as §1

NCI-H520 = tested on: NCI-H520
Outline: as §1

LCLC-97TM1 = tested on: LCLC-97TM1
Outline: as §1

SK-MES-1 = tested on: SK-MES-1
Outline: as §1

HCC-44 = tested on: HCC-44
Outline: as §1

NCI-H1793 = tested on: NCI-H1793
Outline: as §1

H3255 = tested on: H3255
Outline: as §1

HCC-827 = tested on: HCC-827
Outline: as §1

NCI-H1944 = tested on: NCI-H1944
Outline: as §1

NCI-H2405 = tested on: NCI-H2405
Outline: as §1

NCI-H1395 = tested on: NCI-H1395
Outline: as §1

NCI-H2085 = tested on: NCI-H2085
Outline: as §1

NCI-H1563 = tested on: NCI-H1563
Outline: as §1

NCI-H322M = tested on: NCI-H322M
Outline: as §1

Molecule NC(=O)Nc1cc(-c2cccc(F)c2)sc1C(=O)N[C@H]1CCCNC1 [AZD7762] + CS(=O)(=O)CCNCc1ccc(-c2ccc3ncnc(Nc4ccc(OCc5cccc(F)c5)c(Cl)c4)c3c2)o1 [Lapatinib] (partner 2 µM) has a relative viability (NCI-H2087; first compound 0.01 µM) of 1.23, a relative viability (NCI-H2087; first compound 0.03162 µM) of 1.01 and a relative viability (NCI-H2087; first compound 0.1 µM) of 1.01. The relative viability (NCI-H2087; first compound 0.3162 µM) was 1.24, the relative viability (NCI-H2087; first compound 1 µM) was 1.16 and the relative viability (UMC-11; first compound 0.01 µM) was 0.936. It also gave a relative viability (UMC-11; first compound 0.03162 µM) of 1.01, a relative viability (UMC-11; first compound 0.1 µM) of 0.871 and a relative viability (UMC-11; first compound 0.3162 µM) of 0.743. For the same molecule, the relative viability (UMC-11; first compound 1 µM) was 0.398, the relative viability (NCI-H1355; first compound 0.01 µM) was 1 and the relative viability (NCI-H1355; first compound 0.03162 µM) was 0.993. It also gave a relative viability (NCI-H1355; first compound 0.1 µM) of 1.01, a relative viability (NCI-H1355; first compound 0.3162 µM) of 1.02 and a relative viability (NCI-H1355; first compound 1 µM) of 0.719. For the same molecule, the relative viability (NCI-H1651; first compound 0.01 µM) was 0.93, the relative viability (NCI-H1651; first compound 0.03162 µM) was 0.832 and the relative viability (NCI-H1651; first compound 0.1 µM) was 0.909. For the same molecule, the relative viability (NCI-H1651; first compound 0.3162 µM) was 0.607, the relative viability (NCI-H1651; first compound 1 µM) was 0.195 and the relative viability (EMC-BAC-2; first compound 0.01 µM) was 0.908. For the same molecule, the relative viability (EMC-BAC-2; first compound 0.03162 µM) was 0.929, the relative viability (EMC-BAC-2; first compound 0.1 µM) was 0.919 and the relative viability (EMC-BAC-2; first compound 0.3162 µM) was 0.91. It also gave a relative viability (EMC-BAC-2; first compound 1 µM) of 0.894, a relative viability (NCI-H650; first compound 0.01 µM) of 1.04 and a relative viability (NCI-H650; first compound 0.03162 µM) of 1.11. The relative viability (NCI-H650; first compound 0.1 µM) was 0.813, the relative viability (NCI-H650; first compound 0.3162 µM) was 0.747 and the relative viability (NCI-H650; first compound 1 µM) was 0.827. For the same molecule, the relative viability (EPLC-272H; first compound 0.01 µM) was 0.875, the relative viability (EPLC-272H; first compound 0.03162 µM) was 1.19 and the relative viability (EPLC-272H; first compound 0.1 µM) was 0.846. For the same molecule, the relative viability (EPLC-272H; first compound 0.3162 µM) was 0.967, the relative viability (EPLC-272H; first compound 1 µM) was 0.912 and the relative viability (NCI-H2023; first compound 0.01 µM) was 0.601. For the same molecule, the relative viability (NCI-H2023; first compound 0.03162 µM) was 0.758, the relative viability (NCI-H2023; first compound 0.1 µM) was 0.366 and the relative viability (NCI-H2023; first compound 0.3162 µM) was 0.198. It also gave a relative viability (NCI-H2023; first compound 1 µM) of 0.102, a relative viability (NCI-H520; first compound 0.01 µM) of 0.825 and a relative viability (NCI-H520; first compound 0.03162 µM) of 0.864. It also gave a relative viability (NCI-H520; first compound 0.1 µM) of 0.735, a relative viability (NCI-H520; first compound 0.3162 µM) of 0.304 and a relative viability (NCI-H520; first compound 1 µM) of 0.254. It also gave a relative viability (LCLC-97TM1; first compound 0.01 µM) of 0.834, a relative viability (LCLC-97TM1; first compound 0.03162 µM) of 1.13 and a relative viability (LCLC-97TM1; first compound 0.1 µM) of 0.821. The relative viability (LCLC-97TM1; first compound 0.3162 µM) was 0.555, the relative viability (LCLC-97TM1; first compound 1 µM) was 0.609 and the relative viability (SK-MES-1; first compound 0.01 µM) was 0.434. The relative viability (SK-MES-1; first compound 0.03162 µM) was 0.396, the relative viability (SK-MES-1; first compound 0.1 µM) was 0.457 and the relative viability (SK-MES-1; first compound 0.3162 µM) was 0.468. For the same molecule, the relative viability (SK-MES-1; first compound 1 µM) was 0.469, the relative viability (HCC-44; first compound 0.01 µM) was 1.11 and the relative viability (HCC-44; first compound 0.03162 µM) was 0.952. The relative viability (HCC-44; first compound 0.1 µM) was 0.998, the relative viability (HCC-44; first compound 0.3162 µM) was 0.932 and the relative viability (HCC-44; first compound 1 µM) was 0.99. It also gave a relative viability (NCI-H1793; first compound 0.01 µM) of 1.08, a relative viability (NCI-H1793; first compound 0.03162 µM) of 0.721 and a relative viability (NCI-H1793; first compound 0.1 µM) of 0.805. For the same molecule, the relative viability (NCI-H1793; first compound 0.3162 µM) was 0.874, the relative viability (NCI-H1793; first compound 1 µM) was 0.261 and the relative viability (H3255; first compound 0.01 µM) was 0.316. For the same molecule, the relative viability (H3255; first compound 0.03162 µM) was 0.256, the relative viability (H3255; first compound 0.1 µM) was 0.244 and the relative viability (H3255; first compound 0.3162 µM) was 0.264. The relative viability (H3255; first compound 1 µM) was 0.244, the relative viability (HCC-827; first compound 0.01 µM) was 0.202 and the relative viability (HCC-827; first compound 0.03162 µM) was 0.177. It also gave a relative viability (HCC-827; first compound 0.1 µM) of 0.189, a relative viability (HCC-827; first compound 0.3162 µM) of 0.178 and a relative viability (HCC-827; first compound 1 µM) of 0.197. The relative viability (NCI-H1944; first compound 0.01 µM) was 0.977, the relative viability (NCI-H1944; first compound 0.03162 µM) was 0.876 and the relative viability (NCI-H1944; first compound 0.1 µM) was 1.01. It also gave a relative viability (NCI-H1944; first compound 0.3162 µM) of 0.846, a relative viability (NCI-H1944; first compound 1 µM) of 1.01 and a relative viability (NCI-H2405; first compound 0.01 µM) of 1.11. The relative viability (NCI-H2405; first compound 0.03162 µM) was 1.41, the relative viability (NCI-H2405; first compound 0.1 µM) was 0.998 and the relative viability (NCI-H2405; first compound 0.3162 µM) was 1.01. The relative viability (NCI-H2405; first compound 1 µM) was 0.422, the relative viability (NCI-H1395; first compound 0.01 µM) was 1.04 and the relative viability (NCI-H1395; first compound 0.03162 µM) was 1.06. The relative viability (NCI-H1395; first compound 0.1 µM) was 1.05, the relative viability (NCI-H1395; first compound 0.3162 µM) was 0.543 and the relative viability (NCI-H1395; first compound 1 µM) was 0.362. For the same molecule, the relative viability (NCI-H2085; first compound 0.01 µM) was 0.804, the relative viability (NCI-H2085; first compound 0.03162 µM) was 0.878 and the relative viability (NCI-H2085; first compound 0.1 µM) was 0.873. For the same molecule, the relative viability (NCI-H2085; first compound 0.3162 µM) was 0.78, the relative viability (NCI-H2085; first compound 1 µM) was 0.6 and the relative viability (NCI-H1563; first compound 0.01 µM) was 0.868. It also gave a relative viability (NCI-H1563; first compound 0.03162 µM) of 1.04, a relative viability (NCI-H1563; first compound 0.1 µM) of 1.04 and a relative viability (NCI-H1563; first compound 0.3162 µM) of 0.982. The relative viability (NCI-H1563; first compound 1 µM) was 0.904, the relative viability (NCI-H322M; first compound 0.01 µM) was 0.627 and the relative viability (NCI-H322M; first compound 0.03162 µM) was 0.675. For the same molecule, the relative viability (NCI-H322M; first compound 0.1 µM) was 0.532, the relative viability (NCI-H322M; first compound 0.3162 µM) was 0.535 and the relative viability (NCI-H322M; first compound 1 µM) was 0.456.
